The source made the active and inactive calls. The calls are words filed in the database; no cut-off is given here. A value given as a limit tells only on which side of the number the result lay.

T1 sequence (P80457 whole entry): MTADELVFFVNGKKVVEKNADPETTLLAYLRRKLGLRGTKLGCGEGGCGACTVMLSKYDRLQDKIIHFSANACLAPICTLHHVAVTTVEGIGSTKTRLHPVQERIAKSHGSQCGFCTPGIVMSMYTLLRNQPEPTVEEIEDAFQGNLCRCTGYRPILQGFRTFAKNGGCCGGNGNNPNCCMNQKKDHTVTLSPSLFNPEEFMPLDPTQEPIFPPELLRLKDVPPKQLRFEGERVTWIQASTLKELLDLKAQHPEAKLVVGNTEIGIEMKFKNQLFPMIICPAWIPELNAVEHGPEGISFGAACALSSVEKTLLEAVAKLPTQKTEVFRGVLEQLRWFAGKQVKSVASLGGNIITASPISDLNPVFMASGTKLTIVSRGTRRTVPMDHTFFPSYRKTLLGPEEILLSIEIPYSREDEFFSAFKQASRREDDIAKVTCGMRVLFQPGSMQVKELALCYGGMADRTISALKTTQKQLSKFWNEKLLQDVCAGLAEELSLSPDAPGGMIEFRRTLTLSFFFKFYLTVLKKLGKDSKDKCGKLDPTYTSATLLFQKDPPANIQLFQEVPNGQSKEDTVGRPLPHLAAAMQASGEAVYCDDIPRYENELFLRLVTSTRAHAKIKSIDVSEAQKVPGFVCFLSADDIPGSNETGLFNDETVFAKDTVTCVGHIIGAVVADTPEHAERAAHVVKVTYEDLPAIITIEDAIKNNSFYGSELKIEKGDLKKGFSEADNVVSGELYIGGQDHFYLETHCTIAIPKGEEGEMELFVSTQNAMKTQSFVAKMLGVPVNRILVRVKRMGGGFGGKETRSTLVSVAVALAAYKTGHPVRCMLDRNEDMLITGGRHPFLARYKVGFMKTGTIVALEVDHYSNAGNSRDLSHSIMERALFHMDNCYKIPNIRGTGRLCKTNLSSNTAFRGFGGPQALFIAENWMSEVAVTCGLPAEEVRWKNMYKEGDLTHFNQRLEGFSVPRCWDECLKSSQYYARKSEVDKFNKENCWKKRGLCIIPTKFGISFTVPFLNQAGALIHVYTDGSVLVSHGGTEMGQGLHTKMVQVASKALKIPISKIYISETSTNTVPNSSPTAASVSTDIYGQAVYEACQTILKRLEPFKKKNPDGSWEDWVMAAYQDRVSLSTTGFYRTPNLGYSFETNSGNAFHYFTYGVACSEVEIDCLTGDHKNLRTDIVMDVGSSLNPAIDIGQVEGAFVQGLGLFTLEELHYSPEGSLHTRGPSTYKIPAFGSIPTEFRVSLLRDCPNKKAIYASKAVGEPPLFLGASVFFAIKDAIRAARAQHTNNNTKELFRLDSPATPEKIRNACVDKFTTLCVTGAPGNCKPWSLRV

The subject of the first data set is Rattus norvegicus. Briefly: In vivo Hypouricemic activity against potassium oxonate-induced hyperuricemia rat model assessed as reduction in AUC of serum uric acid level at 20 mg/kg, po measured after 0.5 to 8 hrs. The note with it: time 0.5-8 hrs. Format: functional, organism-based.
For the compound `COc1cccc(Cn2cc(COc3ccc(F)cc3C=O)nn2)c1`, the result was Active.

The next data set has as its system Rattus norvegicus. Briefly: In vivo Hypouricemic activity against potassium oxonate-induced hyperuricemia rat model assessed as reduction in serum uric acid production at 8 mg/kg, po measured after 2 hrs. Format: functional, organism-based.
Conditions: not given
Take `Oc1ncnc2[nH]ncc12`: the result was Active.

Another data set has as its target T1, Xanthine dehydrogenase/oxidase (Bos taurus, UniProt P80457). Briefly: Potency index, ratio of allopurinol IC50 to test compound IC50 for bovine XO using xanthine as substrate by spectrophotometry. The note with it: cattle.
As to `COc1cccc(Cn2cc(COc3ccc(F)cc3C=O)nn2)c1`, the “Ratio IC50” value was 14.

Another data set concerns the target T1, Xanthine dehydrogenase/oxidase. Briefly: Inhibition of bovine XO assessed as inhibition of uric acid formation using xanthine as substrate at 25 uM preincubated with enzyme for 10 mins followed by substrate addition and measured for 2 mins by spectrophotometry. The conditions noted are these: cattle, time 12 min.
In the case of `COc1cccc(Cn2cc(COc3cc(F)ccc3C=O)nn2)c1`, the inhibition at 25 µM is under 50%.

Consider `O=Cc1ccccc1OCc1cn(Cc2ccccc2)nn1`, for which the inhibition at 25 µM is under 50%.

Consider `COc1ccccc1Cn1cc(COc2ccccc2[N+](=O)[O-])nn1`, for which the inhibition at 25 µM was under 50%.

For `CC(C)n1cc(COc2ccccc2C=O)nn1`, the inhibition at 25 µM is under 50%.

With `CC(C)CCn1cc(COc2cc(F)ccc2C=O)nn1`, the inhibition at 25 µM was under 50%.

Regarding `COc1ccccc1Cn1cc(COc2ccccc2C#N)nn1`, the inhibition at 25 µM is under 50%.

Consider `CCn1cc(COc2ccccc2C=O)nn1`, for which the inhibition at 25 µM is under 50%.

For the compound `COc1cccc(Cn2cc(COc3ccccc3[N+](=O)[O-])nn2)c1`, the inhibition at 25 µM was under 50%.

In the case of `CCCn1cc(COc2ccccc2C=O)nn1`, the inhibition at 25 µM was under 50%.

With `COc1cccc(Cn2cc(COc3ccccc3C#N)nn2)c1`, the inhibition at 25 µM is under 50%.

The next data set deals with Rattus norvegicus. Briefly: In vivo Hypouricemic activity against potassium oxonate-induced hyperuricemia rat model assessed as reduction in serum uric acid production at 20 mg/kg, po measured after 2 hrs. It is filed as functional, organism-based.
Conditions: not given
Take `COc1cccc(Cn2cc(COc3ccc(F)cc3C=O)nn2)c1`: the outcome was Active.

The target in a further data set is T1, Xanthine dehydrogenase/oxidase. Briefly: Inhibition of bovine XO assessed as inhibition of uric acid formation using xanthine as substrate preincubated with enzyme for 10 mins followed by substrate addition and measured for 2 mins by spectrophotometry.
Conditions: not given
As to `Cc1ccccc1Cn1cc(COc2ccc(F)cc2C=O)nn1`, the IC50 turned out to be 4.01 µM.

For the compound `CCCCn1cc(COc2ccc(F)cc2C=O)nn1`, the IC50 stood at 2.49 µM.

Take `CC(C)CCn1cc(COc2ccccc2C=O)nn1`: the IC50 came out at 16 µM.

Turning to `O=Cc1ccccc1OCc1cn(Cc2ccccc2)nn1`, the IC50 is over 25 µM.

For `CCCCn1cc(COc2ccccc2C=O)nn1`, the IC50 came to 13.5 µM.

Regarding `COc1cccc(Cn2cc(COc3ccccc3C=O)nn2)c1`, the IC50 was found to be 1.02 µM.

As to `COc1ccccc1Cn1cc(COc2ccc(F)cc2C=O)nn1`, the IC50 was 0.94 µM.

Consider `Cc1cccc(Cn2cc(COc3ccc(F)cc3C=O)nn2)c1`, for which the IC50 stood at 1.18 µM.

Turning to `CCCCCn1cc(COc2ccc(F)cc2C=O)nn1`, the IC50 was 2.99 µM.

Take `N#Cc1ccccc1Cn1cc(COc2ccccc2C=O)nn1`: the half-maximal inhibitory concentration (IC50) is 2.22 µM.

As to `CCC(C)n1cc(COc2ccc(F)cc2C=O)nn1` (configuration not stated), the IC50 was found to be 9.36 µM.

`CCn1cc(COc2ccc(F)cc2C=O)nn1`: the IC50 was 3.46 µM.

In the case of `N#Cc1cccc(Cn2cc(COc3ccccc3C=O)nn2)c1`, the IC50 came to 1.71 µM.

Regarding `CCC(C)n1cc(COc2ccccc2C=O)nn1` (configuration not stated), the IC50 came to 21.8 µM.

With `N#Cc1cccc(Cn2cc(COc3ccc(F)cc3C=O)nn2)c1`, the IC50 came to 2.54 µM.

On to `COc1ccccc1Cn1cc(COc2cc(F)ccc2C=O)nn1`, for which the IC50 worked out at 2.07 µM.

For `Cc1cccc(Cn2cc(COc3ccccc3C=O)nn2)c1`, the half-inhibitory concentration (IC50) amounted to 1.11 µM.

Turning to `COc1cccc(Cn2cc(COc3ccc(F)cc3C=O)nn2)c1`, the IC50 turned out to be 0.7 µM.

Consider `CC(C)Cn1cc(COc2ccccc2C=O)nn1`, for which the IC50 is 21.1 µM.

Consider `CCCn1cc(COc2ccc(F)cc2C=O)nn1`, for which the IC50 came out at 5.24 µM.

In the case of `CC(C)n1cc(COc2ccc(F)cc2C=O)nn1`, the IC50 came out at 2.56 µM.

`Cc1ccccc1Cn1cc(COc2ccccc2C=O)nn1`: the IC50 was 1.63 µM.

For the compound `CC(C)Cn1cc(COc2ccc(F)cc2C=O)nn1`, the concentration for half-maximal inhibition (IC50) came to 14.3 µM.

Turning to `CCCCn1cc(COc2cc(F)ccc2C=O)nn1`, the IC50 was 3.59 µM.

Consider `CCCCCn1cc(COc2ccccc2C=O)nn1`, for which the IC50 amounted to 18.1 µM.

On to `COc1ccccc1Cn1cc(COc2ccccc2C=O)nn1`, for which the IC50 worked out at 1.45 µM.

As for `N#Cc1ccccc1Cn1cc(COc2ccc(F)cc2C=O)nn1`, the IC50 turned out to be 4.15 µM.

Turning to `CC(C)CCn1cc(COc2ccc(F)cc2C=O)nn1`, the IC50 was determined as 2.12 µM.

These data come from ChEMBL document CHEMBL5131461, “Discovery of 4-(phenoxymethyl)-1H-1,2,3-triazole derivatives as novel xanthine oxidase inhibitors” (Bioorg Med Chem Lett, 2022).
